The test deals with T1, Sigma-1 receptor (Sig-1R) (Homo sapiens, UniProt Q99720).
T1 construct: gene SIGMAR1; human Sig-1R-GFP stably expressed in Neuro-2A cell membranes
Put plainly: [3H](+)-pentazocine competition radioligand binding, membranes.

Read-outs that look alike come from different tables or passages of the source.

T1 sequence (Q99720 whole entry): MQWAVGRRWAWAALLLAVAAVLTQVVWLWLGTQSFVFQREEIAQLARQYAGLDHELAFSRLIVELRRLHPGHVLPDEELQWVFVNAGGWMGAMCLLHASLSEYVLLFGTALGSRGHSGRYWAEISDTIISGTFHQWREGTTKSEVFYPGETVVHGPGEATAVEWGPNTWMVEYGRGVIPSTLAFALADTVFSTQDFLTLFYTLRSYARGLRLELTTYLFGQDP

For `C[N+](C)(C)CCO` [Choline], the Ki (commonly the dissociation constant of the complex between target and ligand, obtained from inhibition or displacement) stood at 525 µM.

Regarding `CC(=O)OCC[N+](C)(C)C` [acetylcholine], the Ki (read-out: Ki) is around 12000 µM.

Take `C[N+](C)(C)CC(=O)O` [betaine]: the Ki (read-out: Ki) was determined as 1320 µM.

Source of the values: publication PMC6326163, “Choline Is an Intracellular Messenger Linking Extracellular Stimuli to IP3-Evoked Ca^2+ Signals through Sigma-1 Receptors” (Cell Reports, 2019).
